Results as given in US11931373B2, “HSP90 activator AHA1 drives production of pathological tau aggregates” (University of South Florida, priority 2017, dated 2024).

Assays:
[1] = target: T1, Aha1 and Hsp90 complexes (Homo sapiens, UniProt O95433); assay: Co-immunoprecipitation of Hsp90α with Aha1 from PC3-MM2 cells; assay type: cell-based; settings: 10 μM, 24 hours
T1 construct: endogenous in cells; host or cells: PC3-MM2 cells
Experimental: (§1) Co-immunoprecipitation. Co-immunoprecipitation of Hsp90α with Aha1 from PC3-MM2 and iHek P301L cells incubated with the indicated compounds for 24 hours were performed as previously described (Ghosh, et al. ACS Chem. Biol. 2015, 10, 577-590).

[2] = test system: Hsp90; assay: Luciferase refolding assay in PC3-MM2 cells; assay type: cell-based; settings: 2 hours; for Hsp90-mediated refolding of denatured luciferase: 0.097-100 μM; for IC50 of Hsp90-mediated luciferase refolding activity: concentrations examined 100, 25, 6.25, 1.56, 0.39 and 0.097 μM
Experimental: Luciferase refolding assay. Compound dissolved in DMSO at the indicated concentrations or a DMSO control was evaluated in a luciferase refolding assay in PC3-MM2 cells as previously described (Hall, et al. J. Med. Chem. 2016, 59, 925-933) and dose-response curves of the luminescence signal relative to DMSO control were generated using GraphPad Prism 5.0.

[3] = target: T2, binding of Aha1 to Hsp90 (Homo sapiens, UniProt O95433); assay: Co-immunoprecipitation of Hsp90 with Aha1 from iHEK cells; assay type: cell-based; settings: 10 μM, 24 hours
T2 construct: Immunoprecipitated Aha1 from iHEK cells treated±10 μM KU-177 for 24 hours; endogenous in cells; host or cells: iHEK-P301L cells (tetracycline-inducible P301L tau)
Experimental: (§2) Cell culture and transfection. iHek-P301L cells (Ghosh, et al. ACS Med. Chem. Lett. 2016, 7, 813-818) and luciferase expressing PC3-MM2 cells (Ghosh, et al. ACS Med. Chem. Lett. 2016, 7, 813-818) were cultured in DMEM media supplemented with 10% FBS and 1% Penicillin-Streptomycin (Invitrogen). Inducible cells were incubated with 3 μg of tetracycline for 72 h. 48 h prior to harvest, transfections were performed with 2.5 μL Lipofectamine 2000 (Invitrogen) per 1 μg of DNA, which was incubated in serum-free Opti-MEM for 5 minutes before adding the mixture dropwise to the cells. KU-177 was added 24 h prior to harvest at indicated concentrations. Cells were harvested in Tsaio TBS buffer (50 mM Tris Base, 274 mM NaCl, 5 mM KCl, pH 8.0) containing protease inhibitors. Samples were prepared as previously described (Ramsden, et al. J. Neurosci. 2005, 25, 10637-10647) to obtain soluble (S1) and sarkosyl-insoluble (P3) fractions.
as §1

[4] = target: T3, Recombinant human P301L tau with Hsp90 and Aha1 (Homo sapiens, UniProt O95433); assay: Thioflavin T fluorescence assay of tau fibril formation; assay type: biochemical; settings: 10 μM compound vs DMSO, tau with Hsp90 alone or Hsp90 and Aha1
T3 construct: His tag (with TEV site) (N, cleaved yes); made in house; host or cells: E. coli (BL21) one-shot star, pet28a (tau and Aha1); Hsp90α was a gift from Dr. Johannes Buchner
Experimental: (§3) Protein Expression. Recombinant human P301L tau, Aha1, Aha1 E67K, p23, FKBP51, FKBP52, and CDC37 were expressed and purified. Hsp90α protein was a kind gift from Dr. Johannes Buchner. Recombinant human P301L tau, Aha1, Aha1 E67K, p23, FKBP51, FKBP52, and CDC37 were cloned into bacterial expression vector, pet28a with a His tag followed by a TEV sequence. Plasmids were transformed into E. coli (BL21) one-shot star cells and plated onto kanamycin-agar plates. Plates were grown at 37° C. for approximately 16 hours. 10 mL LB broth with kanamycin starter cultures were then inoculated with a colony and the starter culture grown for 8 hours. 1 L cultures were then inoculated at 1:100 dilution and grown to OD600 of 0.8. Cultures were induced with the addition of 1 mM IPTG and the incubator temperature was reduced to 16° C. Cultures were then grown for 14 hours. Cells were then pelleted at 3,500×g for 30 minutes and supernatant discarded. Pellets were resuspended in lysis buffer (20 mM Tris-HCl pH 8.0, 500 mM NaCl, 10 mM Imidazole with protease inhibitors) and frozen at −80° C. Bacterial pellets were then thawed and lysed by sonication. Lysates were then spun at 50,000×g for 1 hr. […]
Thioflavin T Fluorescence Assay. […] Fluorescence was read at 440 nm excitation and 482 nm emission in a BioTek Synergy H1 plate reader at indicated time points. […]

[5] = test system: recombinant P301L tau fibrils; assay: Transmission electron microscopy of tau fibrils; assay type: biochemical, human; settings: KU-177 vs DMSO control
Experimental: as §3, with “hr. Next, the supernatant was purified by nickel affinity chromatography (Nickel Resin, Fisher #PI88222). Protein purity and expression was then checked by Coomassie stained SDS-PAGE.” for “hr.”

[6] = test system: tau in iHEK-P301L cells; assay: Soluble and sarkosyl-insoluble tau in iHEK-P301L cells (Western blot); assay type: cell-based; settings: 10 μM
Experimental: as §2
Western blot and dot blot analysis. Cell and mouse brain tissues samples were analyzed by Western blot using 4-15% SDS gradient gels (BioRad). Antibody dilutions were 1:1000 unless otherwise stated, and all secondary antibodies were used at 1:1000 (Southern Biotech). Blots were developed using ECL (Pierce) on a LAS-4000 mini imager (GE Healthcare). For dot blots, proteins were applied onto a wet nitrocellulose membrane and dried by vacuum. […]

T1 sequence (O95433 whole entry, one chain of several): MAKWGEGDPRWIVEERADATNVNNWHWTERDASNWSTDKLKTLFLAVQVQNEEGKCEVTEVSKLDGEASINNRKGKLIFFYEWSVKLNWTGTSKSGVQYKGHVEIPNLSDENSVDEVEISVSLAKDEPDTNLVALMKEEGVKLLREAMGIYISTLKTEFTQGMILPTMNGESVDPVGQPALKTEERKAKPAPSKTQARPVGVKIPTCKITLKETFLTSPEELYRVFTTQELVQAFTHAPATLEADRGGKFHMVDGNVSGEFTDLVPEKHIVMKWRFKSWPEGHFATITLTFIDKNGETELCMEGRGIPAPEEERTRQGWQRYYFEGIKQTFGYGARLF
T3 sequence (O95433 whole entry, stated change not applied): as the sequence (O95433 whole entry, one chain of several) above

Aha1 and Hsp90 complexes (immunoprecipitation of Aha1, Western blot) [1]	binding of Aha1 to Hsp90 (immunoprecipitation of Aha1, Western blot) [3]	Compound	Hsp90-mediated refolding of denatured luciferase [2]	IC50 of Hsp90-mediated luciferase refolding activity [2]	Recombinant P301L tau fibril formation measured by ThT fluorescence [4]	tau fibril formation observed by TEM [5]	sarkosyl-insoluble tau ([6]; iHEK-P301L cells transfected with Aha1-WT, Aha1-E67K or empty vector)	soluble, phosphorylated tau ([6]; iHEK-P301L cells)
inhibited	–	COc1cccc(-c2cc(C(=O)Nc3cc4ccc(O[C@@H]5OC(C)(C)[C@H](OC)C(O)[C@@H]5O)c(OC)c4oc3=O)ccc2OC)c1 (stereo partly shown) [KU-174]	inhibited	–	–	–	–	–
inhibited	inhibited the binding of Aha1 to Hsp90	COc1cccc(-c2cc(C(=O)Nc3cc4ccc(OC(C)=O)c(OC)c4oc3=O)ccc2OC)c1 [KU-177]	did not inhibit	higher than the range of concentrations examined here	significantly reduce tau fibril formation	robust reduction in tau fibril formation	reduce insoluble tau	increased soluble, phosphorylated tau
inhibited	–	COc1cccc(-c2cc(C(=O)Nc3cc4ccc(O)c(OC)c4oc3=O)ccc2OC)c1 [KU-308]	did not inhibit	higher than the range of concentrations examined here	–	–	–	–
